Test results: patent US8633251B2, “Derivatives of aminoalkanols, method of obtaining of aminoalkanols and their use” (Uniwersytet Jagiellonski, priority 2008, dated 2014)

Experiments:
neurotoxicity (rotarod) = assay: Neurotoxicity test (TOX), rotarod, mice; format: in vivo
Protocol: (§1) In order to define anticonvulsant activity, screening tests were performed, using animal models of seizures. […] Each substance (after dissolving in methylcellulose) was normally tested in doses 30, 100, and 300 mg/kg body weight (b.w.) (mice) or in 30 and 50 mg/kg b.w. (rats) in two possible routes of administration: intraperitoneal (i.p.) or oral (p.o.). Appropriate tests were performed 0.5 and 4 h after administration of the compound. […] (mice) the tests were also performed in doses 10 and 3 mg/kg b.w.
It is performed with use of rotarod test. The animal is placed on a plastic rod (1 inch in diameter), rotating 6 rpm. The rod is placed on a level discouraging the animal to jump off. […] Neurotoxicity is stated if the animal cannot stay on the rod for 1 min. in any of 3 trials. Normally the test is performed in dose 30 mg/kg b.w. in 4 mice (0.5 h) and in 2 mice (4 h), in the dose 100 mg/kg b.w. in 8 mice (0.5 h) and in 4 mice (4 h) and in the dose 300 mg/kg b.w. in 4 mice (0.5 h) and 2 mice (4 h).

[1] = tested on: maximal electroshock seizures; assay: Maximum Electroshock Seizure (MES) test, mice; format: in vivo; conditions: mice
Protocol: as §1
Maximum Electroshock Seizure (MES) test is an electric test, verifying activity towards generalized tonic-clonic seizures (grand mal epilepsy). […] Its procedure consists in administration to an animal a mentioned dose, and after 0.5 or 4 h attaching corneal electrodes (after anesthetic eye-drops: 0.5% tetracaine hydrochloride in 0.9% NaCl) and turning on electric current (60 Hz, 0.2 s, 50 mA (mice) or 150 mA (rats)). […] Normally, in the dose 30 mg/kg b.w. the test is done in 1 mouse after 0.5 or 4 h, in the dose 100 mg/kg b.w.—in 3 mice, and in the dose 300 mg/kg b.w.—in 1 mouse.

[2] = dose 100 mg/kg b.w., time 0.5 h
[3] = mice, dose 100 mg/kg b.w., time 0.5 h
[4] = mice, dose 300 mg/kg b.w., time 0.5 h
[5] = mice, dose 300 mg/kg b.w., time 4 h
[6] = mice, dose 30 mg/kg b.w., 0.5 h
[7] = mice, dose 100 mg/kg b.w., 0.5 h
[8] = mice, dose 300 mg/kg b.w., 0.5 h

## Cc1cccc(C)c1OCCN(C)C(C)CO.Cl (racemic) [Compound 14, R,S-2N-[(2,6-dimethylphenoxy)ethyl]-2N-methylamino-1-propanol hydrochloride]
Neurotoxicity (rotarod); mouse, in vivo, 30 mg/kg
  TOX, No. of animals exhibiting motor impairment/no. of used animals: 1/4
Neurotoxicity (rotarod); mouse, in vivo, 100 mg/kg
  TOX, No. of animals exhibiting motor impairment/no. of used animals: 8/8
Neurotoxicity (rotarod); mouse, in vivo, 300 mg/kg
  TOX, No. of animals exhibiting motor impairment/no. of used animals: 4/4
[1]; dose 30 mg/kg b.w., time 0.5 h
  MES, No. of protected animals/No. of used animals: 1/1
[1]; [2]
  MES, No. of protected animals/No. of used animals: 1/1

## Cc1cccc(C)c1OCCN(C)CC(O)c1ccccc1.Cl (racemic) [Compound 22, R,S-2N-[(2,6-dimethylphenoxy)ethyl]-2N-methylamino-1-phenylethanol hydrochloride]
Neurotoxicity (rotarod); [3]
  TOX, No. of animals exhibiting motor impairment/no. of used animals: 8/8
Neurotoxicity (rotarod); [4]
  TOX, No. of animals exhibiting motor impairment/no. of used animals: 4/4
[1]; [2]
  MES, No. of protected animals/No. of used animals: 2/2
[1]; dose 100 mg/kg b.w., time 4 h
  MES, No. of protected animals/No. of used animals: 2/2

## Cc1cccc(OCCCNC(C)CO)c1C (racemic) [Compound 46, R,S-2N-[(2,3-dimethylphenoxy)propyl]amino-1-propanol]
Neurotoxicity (rotarod); mouse, in vivo, 100 mg/kg
  TOX, No. of animals exhibiting motor impairment/no. of used animals: 8/8
Neurotoxicity (rotarod); mouse, in vivo, 300 mg/kg
  TOX, No. of animals exhibiting motor impairment/no. of used animals: 4/4
[1]; [2]
  MES, No. of protected animals/No. of used animals: 3/3

## CCC(CO)NCCCOc1cccc(C)c1C (racemic) [Compound 48, R,S-2N-[(2,3-dimethylphenoxy)propyl]amino-1-butanol]
Neurotoxicity (rotarod); mouse, in vivo, 100 mg/kg
  TOX, No. of animals exhibiting motor impairment/no. of used animals: 8/8
Neurotoxicity (rotarod); mouse, in vivo, 300 mg/kg
  TOX, No. of animals exhibiting motor impairment/no. of used animals: 4/4
[1]; [2]
  MES, No. of protected animals/No. of used animals: 3/3

## Cc1cccc(OCCCNCC(O)c2ccccc2)c1C (racemic) [Compound 49, R,S-2N-[(2,3-dimethylphenoxy)propyl]amino-1-phenylethanol]
Neurotoxicity (rotarod); mice, dose 30 mg/kg b.w., time 0.5 h
  TOX, No. of animals exhibiting motor impairment/no. of used animals: 1/4
Neurotoxicity (rotarod); mice, dose 30 mg/kg b.w., time 4 h
  TOX, No. of animals exhibiting motor impairment/no. of used animals: 1/2
Neurotoxicity (rotarod); [3]
  TOX, No. of animals exhibiting motor impairment/no. of used animals: 6/8
Neurotoxicity (rotarod); mice, dose 100 mg/kg b.w., time 4 h
  TOX, No. of animals exhibiting motor impairment/no. of used animals: 3/4
Neurotoxicity (rotarod); [4]
  TOX, No. of animals exhibiting motor impairment/no. of used animals: 4/4
Neurotoxicity (rotarod); [5]
  TOX, No. of animals exhibiting motor impairment/no. of used animals: 2/2
[1]; dose 300 mg/kg b.w., time 0.5 h
  MES, No. of protected animals/No. of used animals: 1/1

## Cc1cccc(C)c1OCCCNCC(C)O (racemic) [Compound 50, R,S-1N-[(2,6-dimethylphenoxy)propyl]amino-2-propanol]
Neurotoxicity (rotarod); mouse, in vivo, 30 mg/kg
  TOX, No. of animals exhibiting motor impairment/no. of used animals: 3/4
Neurotoxicity (rotarod); mouse, in vivo, 300 mg/kg
  TOX, No. of animals exhibiting motor impairment/no. of used animals: 4/4
[1]; dose 30 mg/kg b.w., time 0.5 h
  MES, No. of protected animals/No. of used animals: 1/1
[1]; [2]
  MES, No. of protected animals/No. of used animals: 3/3

## Cc1cccc(C)c1OCCCNC(C)CO (racemic) [Compound 51, R,S-2N-[(2,6-dimethylphenoxy)propyl]amino-1-propanol]
Neurotoxicity (rotarod); mouse, in vivo, 30 mg/kg
  TOX, No. of animals exhibiting motor impairment/no. of used animals: 2/4
Neurotoxicity (rotarod); mouse, in vivo, 300 mg/kg
  TOX, No. of animals exhibiting motor impairment/no. of used animals: 4/4
[1]; dose 30 mg/kg b.w., 0.5 h
  MES, No. of protected animals/No. of used animals: 1/1
[1]; dose 100 mg/kg b.w., 0.5 h
  MES, No. of protected animals/No. of used animals: 3/3

## CCC(CO)NCCCOc1c(C)cccc1C.Cl (racemic) [Compound 55, R,S-2N-[(2,6-dimethylphenoxy)propyl]amino-1-butanol hydrochloride]
Neurotoxicity (rotarod); mouse, in vivo, 100 mg/kg
  TOX, No. of animals exhibiting motor impairment/no. of used animals: 8/8
Neurotoxicity (rotarod); mouse, in vivo, 300 mg/kg
  TOX, No. of animals exhibiting motor impairment/no. of used animals: 4/4
[1]; dose 30 mg/kg b.w., 0.5 h
  MES, No. of protected animals/No. of used animals: 1/1
[1]; dose 100 mg/kg b.w., 0.5 h
  MES, No. of protected animals/No. of used animals: 3/3

## Cc1cccc(C)c1OCCCNCC(O)c1ccccc1 (racemic) [Compound 56, R,S-2N-[(2,6-dimethylphenoxy)propyl]amino-1-phenylethanol]
Neurotoxicity (rotarod); [6]
  TOX, No. of animals exhibiting motor impairment/no. of used animals: 2/4
Neurotoxicity (rotarod); [7]
  TOX, No. of animals exhibiting motor impairment/no. of used animals: 8/8
Neurotoxicity (rotarod); [8]
  TOX, No. of animals exhibiting motor impairment/no. of used animals: 4/4
[1]; dose 100 mg/kg b.w., 0.5 h
  MES, No. of protected animals/No. of used animals: 1/1

## Cc1cccc(Cl)c1OCCCNC(C)CO (racemic) [Compound 57, R,S-2N-[(2-chlor-6-methylphenoxy)propyl]amino-1-propanol]
Neurotoxicity (rotarod); [6]
  TOX, No. of animals exhibiting motor impairment/no. of used animals: 4/4
Neurotoxicity (rotarod); mice, dose 30 mg/kg b.w., 4 h
  TOX, No. of animals exhibiting motor impairment/no. of used animals: 1/2
Neurotoxicity (rotarod); [7]
  TOX, No. of animals exhibiting motor impairment/no. of used animals: 8/8
Neurotoxicity (rotarod); [8]
  TOX, No. of animals exhibiting motor impairment/no. of used animals: 4/4

## CCC(CO)NCCCOc1c(C)cccc1Cl.Cl (racemic) [Compound 58, R,S-2N-[(2-chlor-6-methylphenoxy)propyl]amino-1-butanol hydrochloride]
Neurotoxicity (rotarod); [7]
  TOX, No. of animals exhibiting motor impairment/no. of used animals: 6/8
Neurotoxicity (rotarod); [8]
  TOX, No. of animals exhibiting motor impairment/no. of used animals: 4/4
Neurotoxicity (rotarod); mice, dose 300 mg/kg b.w., 4 h
  TOX, No. of animals exhibiting motor impairment/no. of used animals: 1/1
[1]; dose 100 mg/kg b.w., 0.5 h
  MES, No. of protected animals/No. of used animals: 2/3

## CNC(=O)C(C)NC(=O)COc1c(C)cccc1C (racemic) [Compound 67, D,L-2N-[(2,6-dimethylphenoxy)acetyl]aminopropionic acid N-methylamide]
Neurotoxicity (rotarod); [7]
  TOX, No. of animals exhibiting motor impairment/no. of used animals: 1/8
Neurotoxicity (rotarod); [8]
  TOX, No. of animals exhibiting motor impairment/no. of used animals: 4/4
[1]; Mus musculus, dose 100 mg/kg b.w., 0.5 h, read-out: MES, No. of protected animals/No. of used animals (converted)
  responders at 100 mg/kg: 66.7%
[1]; Mus musculus, dose 300 mg/kg b.w., 0.5 h, read-out: MES, No. of protected animals/No. of used animals
  responders at 300 mg/kg: 100%

## CCC(NC(=O)COc1c(C)cccc1Cl)C(N)=O (racemic) [Compound 78, D,L-2N-[(2-chlor-6-methylphenoxy)acetyl]aminobutyramide]
Neurotoxicity (rotarod); [8]
  TOX, No. of animals exhibiting motor impairment/no. of used animals: 1/4

## Cc1cccc(C)c1OCCN[C@@H]1CCCC[C@H]1O (relative stereo) [Compound 18, D,L-trans-2N-[(2,6-dimethylphenoxy)ethyl]amino-1-cyclohexanol]
Neurotoxicity (rotarod); [3]
  TOX, No. of animals exhibiting motor impairment/no. of used animals: 7/8
Neurotoxicity (rotarod); [4]
  TOX, No. of animals exhibiting motor impairment/no. of used animals: 4/4
[1]; [2]
  MES, No. of protected animals/No. of used animals: 3/3

## Cc1cccc(Cl)c1OCCN[C@@H]1CCCC[C@H]1O (relative stereo) [Compound 30, D,L-trans-2N-[(2-chlor-6-methylphenoxy)ethyl]amino-1-cyclohexanol]
Neurotoxicity (rotarod); [3]
  TOX, No. of animals exhibiting motor impairment/no. of used animals: 8/8
Neurotoxicity (rotarod); [4]
  TOX, No. of animals exhibiting motor impairment/no. of used animals: 4/4
[1]; dose 30 mg/kg b.w., time 0.5 h
  MES, No. of protected animals/No. of used animals: 1/1
[1]; [2]
  MES, No. of protected animals/No. of used animals: 1/1

## Cc1cc(C)c(OCCN[C@@H]2CCCC[C@H]2O)c(C)c1 (relative stereo) [Compound 44, D,L-trans-2N-[(2,4,6-trimethylphenoxy)ethyl]amino-1-cyclohexanol]
Neurotoxicity (rotarod); mice, dose 10 mg/kg b.w., time 0.5 h
  TOX, No. of animals exhibiting motor impairment/no. of used animals: 1/4
Neurotoxicity (rotarod); [3]
  TOX, No. of animals exhibiting motor impairment/no. of used animals: 8/8
[1]; dose 10 mg/kg b.w., time 0.5 h
  MES, No. of protected animals/No. of used animals: 1/4
[1]; dose 30 mg/kg b.w., time 0.5 h
  MES, No. of protected animals/No. of used animals: 1/1

## Cc1ccc(C)c(OCCNCC(O)c2ccccc2)c1 (centres unmarked) [Compound 9, R,S-2N-[(2,5-dimethylphenoxy)ethyl]amino-1-phenylethanol]
Neurotoxicity (rotarod); [3]
  TOX, No. of animals exhibiting motor impairment/no. of used animals: 7/8
Neurotoxicity (rotarod); [4]
  TOX, No. of animals exhibiting motor impairment/no. of used animals: 3/4
Neurotoxicity (rotarod); [5]
  TOX, No. of animals exhibiting motor impairment/no. of used animals: 1/2

## Cc1cc(Cl)ccc1OCCNCC(O)c1ccccc1 (centres unmarked) [Compound 37, R,S-2N-[(4-chlor-2-methylphenoxy)ethyl]amino-1-phenylethanol]
Neurotoxicity (rotarod); [4]
  TOX, No. of animals exhibiting motor impairment/no. of used animals: 1/4

## Cc1cccc(Cl)c1OCC(=O)NCCCC(=O)O [Compound 79, 4N-[(2-chlor-6-methylphenoxy)acetyl]aminobutyric acid]
Neurotoxicity (rotarod); [8]
  TOX, No. of animals exhibiting motor impairment/no. of used animals: 1/4

## Cc1cc(Cl)ccc1OCC(=O)NCC(O)c1ccccc1 (centres unmarked) [Compound 82, R,S-2N-[(4-chlor-2-methylphenoxy)acetyl]amino-1-phenylethanol]
Neurotoxicity (rotarod); [7]
  TOX, No. of animals exhibiting motor impairment/no. of used animals: 2/8
Neurotoxicity (rotarod); [8]
  TOX, No. of animals exhibiting motor impairment/no. of used animals: 4/4
Neurotoxicity (rotarod); mice, dose 300 mg/kg b.w., 4 h
  TOX, No. of animals exhibiting motor impairment/no. of used animals: 1/2

## Cc1cc(C)c(OCC(=O)NCC(O)c2ccccc2)c(C)c1 (centres unmarked) [Compound 83, R,S-2N-[(2,4,6-trimethylphenoxy)acetyl]amino-1-phenylethanol]
Neurotoxicity (rotarod); [8]
  TOX, No. of animals exhibiting motor impairment/no. of used animals: 4/4
